Source: paper PMC5618621, “Non-Clinical Studies for Evaluation of 8-C-Rhamnosyl Apigenin Purified from Peperomia obtusifolia against Acute Edema” (International Journal of Molecular Sciences, 2017)

Target: T1, cytosolic phospholipase A2 (cPLA2) (Homo sapiens, UniProt P47712)
T1 construct: gene PLA2G4A
T1 sequence (P47712 1-749): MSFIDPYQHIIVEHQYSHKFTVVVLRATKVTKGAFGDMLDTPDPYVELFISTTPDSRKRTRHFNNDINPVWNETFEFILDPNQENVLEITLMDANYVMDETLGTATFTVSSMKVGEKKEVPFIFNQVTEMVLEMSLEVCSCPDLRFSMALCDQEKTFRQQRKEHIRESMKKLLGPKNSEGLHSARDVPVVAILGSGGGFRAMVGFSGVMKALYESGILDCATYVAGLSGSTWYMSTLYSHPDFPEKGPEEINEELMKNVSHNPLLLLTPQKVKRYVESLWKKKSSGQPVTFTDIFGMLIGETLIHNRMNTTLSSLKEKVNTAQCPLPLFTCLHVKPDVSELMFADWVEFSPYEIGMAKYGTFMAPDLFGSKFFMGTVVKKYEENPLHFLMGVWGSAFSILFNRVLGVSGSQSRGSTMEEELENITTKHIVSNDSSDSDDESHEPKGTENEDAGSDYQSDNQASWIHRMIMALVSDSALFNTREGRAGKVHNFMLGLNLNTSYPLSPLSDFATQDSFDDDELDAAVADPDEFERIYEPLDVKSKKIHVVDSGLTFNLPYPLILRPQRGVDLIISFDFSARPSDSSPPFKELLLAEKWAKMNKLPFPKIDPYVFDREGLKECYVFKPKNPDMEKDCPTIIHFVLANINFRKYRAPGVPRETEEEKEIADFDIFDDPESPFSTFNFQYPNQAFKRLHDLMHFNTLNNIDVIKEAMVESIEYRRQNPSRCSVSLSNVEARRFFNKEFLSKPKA
Test: recombinant cPLA2 enzymatic assay (Cayman cPLA2 assay kit)
Format: biochemical

## C[C@@H]1OC(c2c(O)cc(O)c3c(=O)cc(-c4ccc(O)cc4)oc23)[C@H](O)[C@H](O)[C@H]1O (stereo partly shown) [8CR, 8-C-rhamnosyl apigenin]
  IC50: 134 µM
